IC50 and inhibition data for 16 compounds are collected here from patent US5760036A, “Aminediol protease inhibitors” (E. R. Squibb & Sons, Inc., priority 1995, dated 1998).

Structures can show the parent of a compound that is named as a salt.

Experiment [1] concerns RF strain of HIV (CEM-SS cells). Briefly: Cell Culture Anti-HIV Activity (cell viability, formazan). Format: cell-based. The note with it: Human immunodeficiency virus 1, CEM-SS, 144 h, CEM-SS cells, RF strain of HIV, multiplicity of infection 0.04, 6 days at 37° C., 450 nm; read-out: HIV (CEM Cells) IC50. How it is done: The antiviral activity of aminediol inhibitors of the present invention was evaluated by a microculture method which determines the increase in cell viability of an infected culture when a drug is added. The assay depends on the metabolic reduction of tetrazolium reagent by viable cells to yield a soluble colored formazan product.
The assay was performed as follows: suspensions of CEM-SS cells (5000/well) were infected with the RF strain of HIV at a multiplicity of infection at 0.04 in a 96-well plate. The compounds of the present invention listed in the following Table 1, serially diluted in half-log fashion, were added to the infected and uninfected control cells. Untreated (infected and uninfected) cells were included as controls. Following incubation for 6 days at 37° C., viable cells in each well were quantitated by the visible light absorbance at 450 nm.
The IC50 was calculated as the concentration of drug that increased the formazan production in virally infected cells to 50% of that produced by uninfected cells in the absence of drug.

The next experiment deals with T1, HIV protease (Human immunodeficiency virus type 1 group M subtype B, UniProt P04585).
T1 construct: and purified protease
Briefly: HIV Protease Assay. Format: biochemical. The note with it: pH 5.5, 10 μM inhibitor, 4% DMSO, 450 μM substrate, pH 5.5, 30 minutes at 37° C., RP-HPLC; read-out: HIV Protease % Inhibition at 10 μM. Put shortly: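 At a single final concentration of 10 μM (4% DMSO), inhibitors were added to a 30-minute, 37° C reaction of purified enzyme with 450 μM H2N-Val-Ser-Gln-Asn-(β-naphthyl-alanine)-Pro-Val-Ile-OH at pH 5.5 (sodium acetate, BSA). Hydrolysis was quantified by reverse-phase HPLC with 220 nm detection after acid quench.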

Take `CC(C)[C@H](NC(=O)CCC(=O)Nc1ccccc1)C(=O)N[C@@H](Cc1ccccc1)[C@H](O)CNC[C@@H](O)[C@H](Cc1ccccc1)NC(=O)OC(C)(C)C` (relative stereo) [Compound 204, [1R*,2S*(2S*,3R*)]-N-[3-[[3-[[(1,1-Dimethylethoxy)carbonyl]amino]-2-hydroxy-4-phenylbutyl]amino]-2-hydroxy-1-(phenylmethyl)propyl]-N^2-[[1,4-dioxo-4-(phenylamino)butyl]-L-valinamide]: the half-inhibitory concentration (IC50) in experiment [1] was determined as 170 nM. The inhibition at 10 µM at HIV protease was found to be 99%.

For the compound `C[C@H](O)[C@H](NC(=O)OCc1ccccc1)C(=O)N[C@@H](Cc1ccccc1)[C@H](O)CNC[C@@H](O)[C@H](Cc1ccccc1)NC(=O)OC(C)(C)C` (relative stereo) [Compound 205, [1R*,2S*(2S*,3R*)]-N-[3-[[3-[[(1,1-Dimethylethoxy)carbonyl]amino]-2-hydroxy-4-phenylbutyl]amino]-2-hydroxy-1-(phenylmethyl)propyl]-N^2-[(phenylmethoxy)carbonyl]-L-allothreoninamide], in experiment [1], the IC50 was 70 nM. For the same compound, the inhibition at 10 µM on HIV protease was found to be 98%.

For the compound `CC(C)[C@H](NC(=O)C(N)Cc1ccccc1O)C(=O)N[C@@H](Cc1ccccc1)[C@H](O)CNC[C@@H](O)[C@H](Cc1ccccc1)NC(=O)OC(C)(C)C` (relative stereo) [Compound 211, [1R*,2S*(2S*,3R*)]-N-[3-[[3-[[(1,1-Dimethylethoxy)carbonyl]amino]-2-hydroxy-4-phenylbutyl]amino]-2-hydroxy-1-(phenylmethyl)propyl]-N^2-(2-hydroxyoxyphenylalanyl)-L-valinamide, fumarate (2:3) salt], the IC50 in experiment [1] stood at 900 nM. Further, the inhibition at 10 µM at HIV protease turned out to be 99%.

On to `CC(C)[C@H](NC(=O)[C@@H](N)CO)C(=O)N[C@@H](Cc1ccccc1)[C@H](O)CNC[C@@H](O)[C@H](Cc1ccccc1)NC(=O)OC(C)(C)C` (relative stereo) [Compound 212, [1R*,2S*(2S*,3R*)]-N-[N-[3-[[3-[[(1,1-Dimethylethoxy)carbonyl]amino]-2-hydroxy-4-phenylbutyl]amino]-2-hydroxy-1-(phenylmethyl)propyl]-L-valyl]-L-serinamide, fumarate (2:3) salt], for which, in experiment [1], the IC50 amounted to 3800 nM. The inhibition at 10 µM at HIV protease stood at 99%.

Take `CC(C)[C@H](NC(=O)OCCO)C(=O)N[C@@H](Cc1ccccc1)[C@H](O)CNC[C@@H](O)[C@H](Cc1ccccc1)NC(=O)OC(C)(C)C` (relative stereo) [Compound 218, [1R*,2S*(2S*,3R*)]-N-[3-[[3-[[(1,1-Dimethylethoxy)carbonyl]amino]-2-hydroxy-4-phenylbutyl]amino]-2-hydroxy-1-(phenylmethyl)propyl]-N^2-[(2-hydroxyethoxy)carbonyl]-L-valinamide]: in experiment [1], the IC50 amounted to 1100 nM. Further, the inhibition at 10 µM at HIV protease came out at 96%.

Regarding `CC(C)[C@H](NC(=O)OC[C@H](O)CO)C(=O)N[C@@H](Cc1ccccc1)[C@H](O)CNC[C@@H](O)[C@H](Cc1ccccc1)NC(=O)OC(C)(C)C` (relative stereo) [Compound 219, [[1R*,2S*(2S*,3R*)],N^2-(S*)]-N^2-[(2,3-Dihydroxypropoxy)carbonyl]-N-[3-[[3-[[(1,1-dimethylethoxy)carbonyl]-amino]-2-hydroxy-4-phenylbutyl]amino]-2-hydroxy-1-(phenylmethyl)propyl]-L-valinamide], the IC50 in experiment [1] is 35000 nM. Besides, the inhibition at 10 µM at HIV protease was determined as 86%.

In the case of `C[C@H](NC(=O)OCc1nc2ccccc2[nH]1)C(=O)N[C@@H](Cc1ccccc1)[C@H](O)CNC[C@@H](O)[C@H](Cc1ccccc1)NC(=O)OC(C)(C)C` (relative stereo) [Compound 220, [1R*,2S*(2S*,3R*)]-N^2-[[(2-Benzimidazolyl)methoxy]carbonyl]-N-[3-[[3-[[(1,1-dimethylethoxy)carbonyl]amino]-2-hydroxy-4-phenylbutyl]amino]-2-hydroxy-1-(phenylmethyl)propyl]-L-alaninamide], the IC50 in experiment [1] was 770 nM. Moreover, the inhibition at 10 µM on HIV protease is 100%.

As to `CC(C)[C@H](NC(=O)OCc1nc2ccccc2c(=O)[nH]1)C(=O)N[C@@H](Cc1ccccc1)[C@H](O)CNC[C@@H](O)[C@H](Cc1ccccc1)NC(=O)OC(C)(C)C` (relative stereo) [Compound 222, [1R*,2S*(2S*,3R*)]-N^2-[[(3,4-Dyhydro-4-oxo-2-quinazolinyl)methoxy]carbonyl]-N-[3-[[3-[[(1,1-dimethylethoxy)carbonyl]amino]-2-hydroxy-4-phenylbutyl]amino]-2-hydroxy-1-(phenylmethyl)propyl]-L-valinamide], in experiment [1], the IC50 amounted to 380 nM. Moreover, the inhibition at 10 µM on HIV protease amounted to 98%.

Consider `C[C@H](NC(=O)OCc1ccccc1)C(=O)N[C@@H](Cc1ccccc1)[C@H](O)CNC[C@@H](O)[C@H](Cc1ccccc1)NC(=O)OC(C)(C)C` (relative stereo) [Compound 243, [1R*,2S*(2S*,3R*)]-N-[3-[[3-[[(1,1-Dimethylethoxy)carbonyl]amino]-2-hydroxy-4-phenylbutyl]-2-hydroxy-1-(phenylmethyl)propyl]-N^2-[(phenylmethoxy)carbonyl]-L-alaninamide], for which the IC50 in experiment [1] is 80 nM. Besides, the inhibition at 10 µM at HIV protease was determined as 99%.

As to `CC(C)[C@H](NC(=O)N(C)Cc1nc2ccccc2[nH]1)C(=O)N[C@@H](Cc1ccccc1)[C@H](O)CNC[C@@H](O)[C@H](Cc1ccccc1)NC(=O)OC(C)(C)C` (relative stereo) [Compound 245, [1R*,2S*(2S*,3R*)]-N-[3-[[3-[[(1,1-Dimethylethoxy)carbonyl]amino]-2-hydroxy-4-phenylbutyl]amino]-2-hydroxy-1-(phenylmethyl)propyl]-N^2-[[(1H-benzimidazol-2-yl-methyl)methylamino]carbonyl]-L-valinamide], in experiment [1], the IC50 came to 1800 nM. Further, the inhibition at 10 µM at HIV protease amounted to 100%.

Consider `COC(=O)N[C@H](C(=O)N[C@@H](Cc1ccccc1)[C@H](O)CNC[C@@H](O)[C@H](Cc1ccccc1)NC(=O)OC(C)(C)C)C(C)(C)C` (relative stereo) [Compound 246, [1R*,2S*(2S*,3R*)]-N-[3-[[3-[[(1,1-Dimethylethoxy)carbonyl]amino]-2-hydroxy-4-phenylbutyl]amino]-2-hydroxy-1-(phenylmethyl)propyl]-N^2-(2-methoxycarbonyl)-3-methyl-L-valinamide], for which the IC50 in experiment [1] was 40 nM. Also, at HIV protease, the inhibition at 10 µM is 100%.

On to `COC(=O)N[C@H](C(=O)N[C@@H](Cc1ccccc1)[C@H](O)CNC[C@@H](O)[C@H](Cc1ccccc1)NC(=O)OC(C)(C)C)C(C)C` (relative stereo) [Compound 247, [1R*,2S*,3R*)]-N-[3-[[3-[[(1,1-Dimethylethoxy)carbonyl]amino]-2-hydroxy-4-phenylbutyl]amino]-2-hydroxy-1-(phenylmethyl)propyl]-N^2-(methoxycarbonyl)-L-valinamide], for which the half-inhibitory concentration (IC50) in experiment [1] is 100 nM. In addition, the inhibition at 10 µM on HIV protease worked out at 99%.

Regarding `CCC(=O)N[C@H](C(=O)N[C@@H](Cc1ccccc1)[C@H](O)CNC[C@@H](O)[C@H](Cc1ccccc1)NC(=O)OC(C)(C)C)C(C)C` (relative stereo) [Compound 248, [1R*,2S*,(2S*,3R*)]-N-[3-[[3-[[(1,1-Dimethylethoxy)carbonyl]amino]-2-hydroxy-4-phenylbutyl]amino]-2-hydroxy-1-(phenylmethyl)propyl]-N^2-(1-oxopropyl)-L-valinamide], the IC50 in experiment [1] stood at 230 nM. Further, the inhibition at 10 µM at HIV protease was 99%.

Regarding `CC(C)[C@H](NC(=O)OCc1ncc[nH]1)C(=O)N[C@@H](Cc1ccccc1)[C@H](O)CNC[C@@H](O)[C@H](Cc1ccccc1)NC(=O)OC(C)(C)C` (relative stereo) [Compound 249, [1R*,2S*(2S*,3R*)]-N-[3-[[3-[[(1,1-Dimethylethoxy)carbonyl]amino]-2-hydroxy-4-phenylbutyl]amino]-2-hydroxy-1-(phenylmethyl)propyl]-N^2-[(1H-imidazol-2-ylmethoxy)carbonyl]-L-valinamide, acetate (2:3) salt], the concentration for half-maximal inhibition (IC50) in experiment [1] came to 840 nM. Further, the inhibition at 10 µM at HIV protease was 100%.

For `CC(C)[C@H](NC(=O)CCn1[nH]c2ccccc2c1=O)C(=O)N[C@@H](Cc1ccccc1)[C@H](O)CNC[C@@H](O)[C@H](Cc1ccccc1)NC(=O)OC(C)(C)C` (relative stereo) [Compound 250, [1R*,2S*(2S*,3R*)]-N^2-[3-(1,3-Dihydro-3-oxo-2H-indazol-2-yl)-1-oxopropyl]-N-[3-[[3-[[(1,1-dimethylethoxy)carbonyl]amino]-2-hydroxy-4-phenylbutyl]amino]-2-hydroxy-1-(phenylmethyl)propyl]-L-valinamide], the half-maximal inhibitory concentration (IC50) in experiment [1] worked out at 1500 nM. Further, on HIV protease, the inhibition at 10 µM was determined as 100%.

Regarding `CC(C)[C@H](NC(=O)CC(O)CO)C(=O)N[C@@H](Cc1ccccc1)[C@H](O)CNC[C@@H](O)[C@H](Cc1ccccc1)NC(=O)OC(C)(C)C` (relative stereo) [Compound 254, [1R*,2S*(2S*,3R*)]-N-[3-[[3-[[(1,1-Dimethylethoxy)carbonyl]amino]-2-hydroxy-4-phenylbutyl]amino]-2-hydroxy-1-(phenylmethyl)propyl]-N^2-(3,4-dihydroxy-1-oxobutyl)-L-valinamide], the IC50 in experiment [1] was 17000 nM. Besides, the inhibition at 10 µM at HIV protease turned out to be 98%.

As a reminder, the IC50 is the concentration at which inhibition is half-maximal. For orientation: inhibition means how much of the control response was suppressed.
